{"source": "patent US20240108004A1", "about": "“METHOD FOR CONTROLLING INSECTS IN CROP PLANTS, SEEDS AND COMPOSITION” (Nippon Soda Co., Ltd., priority 2021, published 2024)", "key": {"[1]": {"tested_on": "wire worm (Agriotes sp.) larvae", "experiment": "Efficacy test of corn seed treatment against Agriotes sp.", "format": "in vivo", "conditions": "corn seeds coated, 42 days; for Healthy stock ratio: 50 g compound per 50,000 seeds, 12 larvae per 12-seed container, outdoors", "excerpt": "Efficacy test of corn seed treatment against Agriotes sp.\n(§1) The compound (1) (30 parts), tristyryl-based surfactant (6.0 parts), dioctylsulfosuccinate metal salt (1.5 parts), silicone-based defoamer (1.2 parts), xanthan gum (0.2 parts), 1,2-benzisothiazolin-3-one (0.1 parts), propylene glycol (5.0 parts), and water (56 parts) were mixed to prepare a reagent solution.\nCorn seeds were coated with the reagent solution so that the treatment amount of the compound (1) was 50 g per 50,000 seeds.\nFurther, corn seeds were similarly coated with tefluthrin as a control agent so that the treatment amount was 10 g per 50,000 seeds.\nThe treated seeds were planted in a 12-seed container and inoculated with 12 wire worm (Agriotes sp.) larvae. The container was placed outdoors, and 42 days later, the number of healthy stocks and the number of damaged stocks were investigated to determine the efficacy. The test was repeated 4 times.\nThe healthy stock ratio was calculated using the following formula.\nHealthy stock ratio (%)=100×(number of healthy stocks/number of seeds)"}, "Phyllotreta striolata": {"tested_on": "Phyllotreta striolata", "experiment": "Efficacy test of rape seed treatment against Phyllotreta striolata", "format": "in vivo", "conditions": "rape seeds coated, 10 g per 100 kg of seeds; inoculated 14 days after planting; 6 days after releasing the insects; 25° C., humidity 65%", "excerpt": "Efficacy test of rape seed treatment against Phyllotreta striolata\nas §1, with “(I)” for “(1)”\nRape seeds were coated with the reagent solution so that the treatment amount of the compound (I) was 10 g per 100 kg of seeds.\nThe treated seeds were planted in a 10-seed pot and raised in a greenhouse for 14 days. After that, each pot was inoculated with 5 Phyllotreta striolata. The pots were stored in a constant temperature room at a temperature of 25° C. and at a humidity of 65%.\nThe life/death determination was made 6 days after releasing the insects, and the insecticidal rate was calculated by the following formula. The test was repeated 3 times.\nInsecticidal rate (%)=(number of dead insects/number of test insects)×100"}}}
{"smiles": "CCS(=O)(=O)c1cc(C2CC2)cnc1-c1ncc(C(F)C(F)(C(F)(F)F)C(F)(F)F)n1C", "note": "(centres unmarked) [formula (III)]", "values": [{"measurement": "Healthy stock ratio", "setting": "[1]; unit not given", "result": 81.3}, {"measurement": "Insecticidal rate", "setting": "Phyllotreta striolata", "result": 100, "unit": "%"}]}
{"smiles": "CCS(=O)(=O)c1cc(C2CC2)cnc1-c1ncc(C=C(Cl)C(F)(F)F)n1C", "note": "[formula (II)]", "values": [{"measurement": "Healthy stock ratio", "setting": "[1]", "result": 83.3, "unit": "%"}, {"measurement": "Insecticidal rate", "setting": "Phyllotreta striolata", "result": 100, "unit": "%"}]}
{"smiles": "Cc1c(F)c(F)c(COC(=O)[C@@H]2[C@H](/C=C(\\Cl)C(F)(F)F)C2(C)C)c(F)c1F", "note": "(racemic) [tefluthrin, reference compound]", "values": [{"measurement": "healthy stock rate", "setting": "[1]; control agent, 10 g per 50,000 seeds", "result": 62.5, "unit": "%"}]}
